The target of one test is FintCSP1-Ser84Ala (Frankliniella intonsa, UniProt A0A891LVF4, S84A). Description: Fluorescence (1-NPN) binding and competitive binding assay, FintCSP1 mutant. As for the experimental part: The binding affinity of FintCSP1 and FoccCSP to the fluorescent probe N-phenyl-1-naphthylamine (1-NPN) was tested using a Spectramax M2 fluorescence spectrometer (Molecular Devices, USA) as reported previously. Volatile compounds and 1-NPN were first dissolved to a concentration of 1 mM in HPLC-grade methanol and dissolved to their indicated final concentration (2–20 μM) to titrate 2 μM protein solutions resuspended in 50 mM Tris-HCl (pH 7.4). The 1-NPN/FintCSP1 or 1-NPN/FoccCSP mixture was excited at 280 nm, and the emission spectra were recorded at 415 nm. The binding constants (Kd) of FintCSP1 or FoccCSP to 1-NPN were calculated by Scatchard analysis using Prism 5 software (GraphPad, La Jolla, CA, USA). Assuming a protein activity of 100% and that the volatile compound binds to the protein in a 1:1 ratio at saturation, the dissociation constants (Ki) of FintCSP1 or FoccCSP for each ligand were calculated according to the IC50 (the concentration when the ligand replaces 50% of the probe) value of the volatile compounds. The Ki values were calculated according to the following equation: Ki = [IC50]/(1 + [1-NPN]/K1-NPN), where [1-NPN] is the free concentration of 1-NPN, and K1-NPN is the Kd of the 1-NPN/FintCSP1 or 1-NPN/FoccCSP.
To verify the key amino acids of FintCSP1 and FoccCSP that bind to cis-3-hexenal, six amino acid residues of FintCSP1 were mutated (Lys26Ala, Phe27Ala, Thr28Ala, Glu67Ala, Ser84Ala, and the negative control residue Val132Ala) and nine amino acid residues of FoccCSP were mutated (Lys26Ala, Phe27Ala, Thr28Ala, Thr29Ala, Tyr31Ala, Asp64Ala, Glu67Ala, Gln87Ala, and the negative control residue Val132Ala) with the Fast Mutagenesis System Kit (Transgen Biotech, Beijing, China) using the pET-30a/FintCSP1 and pET-30a/FoccCSP plasmid DNA as template, respectively. […] After validation by sequencing, each recombinant variant protein was produced and purified as described above, and their binding affinity to cis-3-hexenal was measured as described above.

A further test has as its system F. intonsa antennae. Description: Electroantennogram (EAG) assay. On the set-up: species or system Frankliniella intonsa. As for the experimental part: The FintCSP1, FintCSP2, FintOBP, FintOR, FoccCSP, and enhanced green fluorescent protein (EGFP) coding sequences were obtained from GenBank under accession numbers MT199111, MT211602, OK067245, MT211603, AEP27186.1, and U55761.1, respectively. Primers were designed using Primer Premier 5.0, and the T7 promoter sequence (5′-[…]-3′) was added to the 5′ end of each primer (S1 Table). DNA fragments containing T7 promoter sequences were amplified by PCR using pEASY-T1/target gene or pUC-EGFP (preserved in the laboratory) plasmid DNA as template. Then, a double-stranded RNA (dsRNA) was produced from each target gene using the HiScribe T7 Quick High Yield RNA Synthesis Kit (New England Biolabs) according to the manufacturer’s instructions. Six hundred 2-day-old female F. intonsa or two hundred 2-day-old female F. occidentalis adults were anesthetized using CO2 and microinjected with 40 nL (3 μg/μL) dsRNA (dsFintCSP1 dsFintCSP2, dsFintOBP, dsFintOR or dsFoccCSP or dsEGFP) using a CellTram Oil microinjector (Eppendorf, Hamburg, Germany). The injected thrips were kept on broad beans in an artificial climate incubator as described above and used in subsequent RNAi experiments. Three biological replicates were conducted for each treatment with each dsRNA.
At 24 h after dsRNA injection, the electrophysiological responses of F. intonsa antennae to six volatile components (i.e., m-cymene, cis-3-hexenal, (+)-2-carene, trans-2-hexenal, α-phellandrene, and α-humulene) or F. occidentalis antennae to cis-3-hexenal were recorded using EAG. Antennae of female adult thrips were cut off at the base, and the distal terminus was carefully removed. The tested compounds were dissolved in liquid paraffin, with pure liquid paraffin used as a negative control. An Ag-AgCl2 glass electrode and Kaissling electrode solution were used in the experiment according to Tian et al.. The base of the antenna was inserted into the glass capillary filled with electrode solution at the end of the reference electrode; the top of the antenna was connected to the glass capillary at the end of the recording electrode to ensure no bubbles in the glass capillary. After successful connection, the antennae were stimulated with each chemical in the following order: liquid paraffin, volatile compounds, and liquid paraffin. Stimulus time was 0.2 s with each stimulus at 40 s intervals. At least 10 antennae were tested for each volatile compound. The EAG values to volatile compounds were calculated using the following equation: absolute value of EAG reaction = reaction value of the tested sample—average value of two control measurements.

A further test has as its system F. occidentalis antennae. Description: Electroantennogram (EAG) assay. On the set-up: species or system Frankliniella occidentalis. The note with it: dsFoccCSP-injected compared to dsEGFP-injected F. occidentalis. As for the experimental part: The FintCSP1, FintCSP2, FintOBP, FintOR, FoccCSP, and enhanced green fluorescent protein (EGFP) coding sequences were obtained from GenBank under accession numbers MT199111, MT211602, OK067245, MT211603, AEP27186.1, and U55761.1, respectively. Primers were designed using Primer Premier 5.0, and the T7 promoter sequence (5′-[…]-3′) was added to the 5′ end of each primer (S1 Table). DNA fragments containing T7 promoter sequences were amplified by PCR using pEASY-T1/target gene or pUC-EGFP (preserved in the laboratory) plasmid DNA as template. Then, a double-stranded RNA (dsRNA) was produced from each target gene using the HiScribe T7 Quick High Yield RNA Synthesis Kit (New England Biolabs) according to the manufacturer’s instructions. […]
At 24 h after dsRNA injection, the electrophysiological responses of F. intonsa antennae to six volatile components (i.e., m-cymene, cis-3-hexenal, (+)-2-carene, trans-2-hexenal, α-phellandrene, and α-humulene) or F. occidentalis antennae to cis-3-hexenal were recorded using EAG. […] The EAG values to volatile compounds were calculated using the following equation: absolute value of EAG reaction = reaction value of the tested sample—average value of two control measurements.

The test system of test [1] is OBP5 from Apolygus lucorum. On the set-up: method as in PMID 23665333. The note with it: cited from earlier work.

Results on one molecule are retold here after PMC10194981, “Chemosensory protein regulates the behavioural response of Frankliniella intonsa and Frankliniella occidentalis to tomato zonate spot virus–Infected pepper (Capsicum annuum)” (PLOS Pathogens, 2023).

The term IC50 denotes the concentration that gives 50% inhibition. Read a high IC50 as lower potency. As a reminder, the Ki is a measure of affinity in units of concentration, obtained from inhibition or displacement. A higher Ki goes with lower affinity.

Chain of FintCSP1-Ser84Ala (A0A891LVF4 entry or part of it S84A): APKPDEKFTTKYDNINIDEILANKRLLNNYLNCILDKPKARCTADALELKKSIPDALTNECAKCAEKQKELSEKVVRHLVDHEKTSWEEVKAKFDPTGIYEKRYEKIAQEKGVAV

Turning to `CC/C=C\CC=O` [cis-3-hexenal], at FintCSP1-Ser84Ala, the IC50 amounted to 41.3 ± 3.96 µM and the affinity corresponds to a Ki of 29.7 ± 2.84 µM. In the test with F. intonsa antennae (10 mg/L in liquid paraffin, excised F. intonsa antennae), the EAG peak amplitude result is listed as “–0.077 mV”. In addition, in the test on F. intonsa antennae (dsFintCSP1-injected compared to dsEGFP-injected F. intonsa, 24 h after injection), the “EAG response of FintCSP1-silenced antennae (in words)” value is on record as “significantly lower response”. Besides, in the test with F. occidentalis antennae, the “EAG response of FoccCSP-silenced antennae (in words)” value is given as “significantly lower response”. Besides, the “binding to OBP5 (in words)” value in test [1] is reported as “strongly binds”.
